Our source for the Ki values is US8962631B2 (Vertex Pharmaceuticals Incorporated, priority 2010, dated 2015).

The structures appear in SMILES notation.

The target of this assay is T1, full-length ATR (Homo sapiens, UniProt Q13535).
T1 construct: Assays were carried out at 25° C. in the presence of 5 nM full-length ATR
T1 sequence (Q13535 whole entry): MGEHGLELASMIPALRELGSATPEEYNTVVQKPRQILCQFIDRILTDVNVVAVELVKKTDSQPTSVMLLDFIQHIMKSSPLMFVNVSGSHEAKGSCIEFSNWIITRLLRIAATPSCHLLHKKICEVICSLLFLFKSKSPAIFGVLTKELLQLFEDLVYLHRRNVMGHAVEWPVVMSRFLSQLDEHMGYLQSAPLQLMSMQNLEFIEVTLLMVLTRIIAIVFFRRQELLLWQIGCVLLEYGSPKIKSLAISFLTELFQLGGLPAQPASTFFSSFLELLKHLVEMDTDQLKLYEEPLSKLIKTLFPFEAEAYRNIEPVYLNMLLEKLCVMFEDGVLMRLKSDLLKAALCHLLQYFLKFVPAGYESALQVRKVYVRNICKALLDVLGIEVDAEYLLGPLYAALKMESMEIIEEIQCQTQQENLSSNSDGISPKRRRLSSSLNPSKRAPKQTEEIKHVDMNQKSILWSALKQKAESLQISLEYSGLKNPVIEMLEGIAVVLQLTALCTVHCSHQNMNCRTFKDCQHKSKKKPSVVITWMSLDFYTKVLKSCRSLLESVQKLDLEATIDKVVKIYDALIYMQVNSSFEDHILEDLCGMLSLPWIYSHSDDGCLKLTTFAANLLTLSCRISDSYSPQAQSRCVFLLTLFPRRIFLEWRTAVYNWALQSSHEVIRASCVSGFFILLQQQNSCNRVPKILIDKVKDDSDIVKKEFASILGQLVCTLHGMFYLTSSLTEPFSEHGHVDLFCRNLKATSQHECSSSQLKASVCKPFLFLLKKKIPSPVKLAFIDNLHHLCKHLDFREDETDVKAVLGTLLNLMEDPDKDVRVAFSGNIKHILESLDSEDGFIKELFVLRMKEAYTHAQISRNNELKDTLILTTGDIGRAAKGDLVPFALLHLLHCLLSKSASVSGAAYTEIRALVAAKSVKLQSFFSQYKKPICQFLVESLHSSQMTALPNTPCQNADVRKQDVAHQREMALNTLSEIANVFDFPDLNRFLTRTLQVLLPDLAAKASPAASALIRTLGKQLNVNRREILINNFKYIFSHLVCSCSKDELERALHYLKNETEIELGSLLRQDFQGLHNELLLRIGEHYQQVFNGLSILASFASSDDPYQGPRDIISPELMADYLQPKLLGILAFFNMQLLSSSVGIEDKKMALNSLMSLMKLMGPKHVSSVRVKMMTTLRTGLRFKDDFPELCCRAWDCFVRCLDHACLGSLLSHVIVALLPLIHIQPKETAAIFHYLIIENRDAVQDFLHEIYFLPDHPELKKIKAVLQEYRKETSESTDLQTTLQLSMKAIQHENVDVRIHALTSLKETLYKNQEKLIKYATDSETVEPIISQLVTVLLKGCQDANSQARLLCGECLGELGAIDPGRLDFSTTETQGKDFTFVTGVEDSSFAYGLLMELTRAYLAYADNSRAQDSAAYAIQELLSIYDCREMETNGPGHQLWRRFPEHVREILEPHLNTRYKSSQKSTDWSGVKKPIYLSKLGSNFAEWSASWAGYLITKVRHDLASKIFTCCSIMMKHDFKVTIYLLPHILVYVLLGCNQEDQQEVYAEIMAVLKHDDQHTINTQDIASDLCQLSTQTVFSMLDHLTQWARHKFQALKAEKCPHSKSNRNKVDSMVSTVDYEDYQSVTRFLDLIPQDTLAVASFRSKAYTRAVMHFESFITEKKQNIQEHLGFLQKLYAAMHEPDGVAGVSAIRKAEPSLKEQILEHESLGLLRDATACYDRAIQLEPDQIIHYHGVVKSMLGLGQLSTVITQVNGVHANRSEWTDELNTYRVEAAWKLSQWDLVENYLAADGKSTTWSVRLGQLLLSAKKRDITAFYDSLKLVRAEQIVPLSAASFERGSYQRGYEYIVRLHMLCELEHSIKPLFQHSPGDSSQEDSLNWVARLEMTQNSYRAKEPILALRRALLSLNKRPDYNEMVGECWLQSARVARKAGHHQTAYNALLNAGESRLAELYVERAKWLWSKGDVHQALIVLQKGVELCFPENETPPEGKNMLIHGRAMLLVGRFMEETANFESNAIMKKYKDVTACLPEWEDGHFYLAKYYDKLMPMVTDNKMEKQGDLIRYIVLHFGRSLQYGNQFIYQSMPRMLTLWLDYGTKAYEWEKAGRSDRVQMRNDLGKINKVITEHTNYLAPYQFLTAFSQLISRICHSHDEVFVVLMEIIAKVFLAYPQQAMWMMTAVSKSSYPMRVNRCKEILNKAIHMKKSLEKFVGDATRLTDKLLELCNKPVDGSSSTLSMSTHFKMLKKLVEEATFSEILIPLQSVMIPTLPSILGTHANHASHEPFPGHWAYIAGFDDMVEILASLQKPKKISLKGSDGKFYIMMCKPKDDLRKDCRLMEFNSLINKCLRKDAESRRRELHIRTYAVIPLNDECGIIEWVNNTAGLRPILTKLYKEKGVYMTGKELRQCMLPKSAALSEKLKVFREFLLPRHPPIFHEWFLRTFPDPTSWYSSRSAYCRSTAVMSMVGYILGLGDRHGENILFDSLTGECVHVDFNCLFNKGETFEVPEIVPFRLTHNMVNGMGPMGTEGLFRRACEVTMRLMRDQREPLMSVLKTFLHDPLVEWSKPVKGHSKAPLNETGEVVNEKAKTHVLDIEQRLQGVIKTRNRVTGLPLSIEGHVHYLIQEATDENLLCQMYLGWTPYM
The assay is described as follows: ATR Inhibition Assay (radioactive-phosphate incorporation). In kind it is biochemical. The conditions noted are these: Ki(app); 10 μM ATP, 800 μM target peptide, 5 nM full-length ATR, 25° C. As for the experimental part:
Compounds were screened for their ability to inhibit ATR kinase using a radioactive-phosphate incorporation assay. Assays were carried out in a mixture of 50 mM Tris/HCl (pH 7.5), 10 mM MgCl2 and 1 mM DTT. Final substrate concentrations were 10 μM [γ-33P]ATP (3 mCi 33P ATP/mmol ATP, Perkin Elmer) and 800 μM target peptide ([…] (SEQ. ID NO: 1)).
Assays were carried out at 25° C. in the presence of 5 nM full-length ATR. An assay stock buffer solution was prepared containing all of the reagents listed above, with the exception of ATP and the test compound of interest. 13.5 μL of the stock solution was placed in a 96 well plate followed by addition of 2 μL of DMSO stock containing serial dilutions of the test compound (typically starting from a final concentration of 15 μM with 3-fold serial dilutions) in duplicate (final DMSO concentration 7%). The plate was pre-incubated for 10 minutes at 25° C. and the reaction initiated by addition of 15 μL [γ-33P]ATP (final concentration 10 μM).
The reaction was stopped after 24 hours by the addition of 30 μL 0.1M phosphoric acid containing 2 mM ATP. A multiscreen phosphocellulose filter 96-well plate (Millipore, Cat no. MAPHN0B50) was pretreated with 100 μL 0.2M phosphoric acid prior to the addition of 45 μL of the stopped assay mixture. The plate was washed with […] 0.2M phosphoric acid. After drying, 100 μL Optiphase ‘SuperMix’ liquid scintillation cocktail (Perkin Elmer) was added to the well prior to scintillation counting (1450 Microbeta Liquid Scintillation Counter, Wallac).
After removing mean background values for all of the data points, Ki(app) data were calculated from non-linear regression analysis of the initial rate data using the Prism software package (GraphPad Prism version 3.0cx for Macintosh, GraphPad Software, San Diego Calif., USA).
In the case of `Cc1ccc2nc(-c3nc(Oc4ccc(F)cc4)cnc3N)[nH]c2c1` [II-23, 5-(4-Fluorophenoxy)-3-(6-methyl-1H-benzimidazol-2-yl)pyrazin-2-amine], the Ki lay within 1000 to 8000 nM. Then `Nc1ncc(C#CCCO)nc1-c1nnc(-c2ccccc2)o1` [II-89, 4-[5-amino-6-(5-phenyl-1,3,4-oxadiazol-2-yl)pyrazin-2-yl]but-3-yn-1-ol], with 1000 to 8000 nM. The value for `Cc1ccc2nc(-c3nc(C(=O)N4CCC4)cnc3N)[nH]c2c1` [II-60, [5-Amino-6-(6-methyl-1H-benzimidazol-2-yl)pyrazin-2-yl]-(azetidin-1-yl)methanone] was at most 500 nM; that for `Cc1ccc2nc(-c3nc(C(=O)NCc4ccccc4)cnc3N)[nH]c2c1` [II-43, 5-Amino-N-benzyl-6-(6-methyl-1H-benzimidazol-2-yl)pyrazine-2-carboxamide] was at most 500 nM; that for `Cc1ccc2nc(-c3nc(C#CCN(C)C)cnc3N)[nH]c2c1` [II-84, 5-[3-(Dimethylamino)prop-1-ynyl]-3-(6-methyl-1H-benzimidazol-2-yl)pyrazin-2-amine] was 1000 to 8000 nM. The value for `Cc1ccc2nc(-c3nc(Oc4ccccc4)cnc3N)[nH]c2c1` [II-30, 3-(6-Methyl-1H-benzimidazol-2-yl)-5-phenoxy-pyrazin-2-amine] was 1000 to 8000 nM; that for `Cc1ccc2nc(-c3nc(C(=O)Nc4cccnc4)cnc3N)[nH]c2c1` [II-42, 5-Amino-6-(6-methyl-1H-benzimidazol-2-yl)-N-(3-pyridyl)pyrazine-2-carboxamide] was 500 to 1000 nM; that for `C#CCNC(=O)c1cnc(N)c(-c2nc3ccc(C)cc3[nH]2)n1` [II-54, 5-Amino-6-(6-methyl-1H-benzimidazol-2-yl)-N-prop-2-ynyl-pyrazine-2-carboxamide] was at most 500 nM. For the molecule `Cc1ccc2nc(-c3nc(C(=O)Nc4ccc(N5CCN(C)CC5)nc4)cnc3N)[nH]c2c1` [II-45, 5-Amino-6-(6-methyl-1H-benzimidazol-2-yl)-N-[6-(4-methylpiperazin-1-yl)-3-pyridyl]pyrazine-2-carboxamide], the Ki was 1000 to 8000 nM. In the case of `C=CCNC(=O)c1cnc(N)c(-c2nc3ccc(C)cc3[nH]2)n1` [II-66, N-Allyl-5-amino-6-(6-methyl-1H-benzimidazol-2-yl)pyrazine-2-carboxamide], the Ki fell in the range of 1000 to 8000 nM. Then `Nc1ncc(Nc2cccc(F)c2)nc1C(=O)Nc1ccccc1` [II-4, 3-Amino-6-(3-fluoroanilino)-N-phenyl-pyrazine-2-carboxamide], with at most 500 nM; and `Cc1ccc2nc(-c3nc(NC(=O)CC#N)cnc3N)[nH]c2c1` [II-92, N-(5-Amino-6-(6-methyl-1H-benzo[d]imidazol-2-yl)pyrazin-2-yl)-2-cyanoethanamide], with 500 to 1000 nM. Then `Nc1ncc(Oc2cccc(Cl)c2)nc1-c1nc2ccccc2[nH]1` [II-8, 3-(1H-Benzimidazol-2-yl)-5-(3-chlorophenoxy)pyrazin-2-amine], with 500 to 1000 nM. The value for `Cc1ccc2nc(-c3nc(C(=O)N(C)CC#N)cnc3N)[nH]c2c1` [II-76, 5-Amino-N-(cyanomethyl)-N-methyl-6-(6-methyl-1H-benzimidazol-2-yl)pyrazine-2-carboxamide] was 1000 to 8000 nM.
